Test results as given in US6350742B1, “Compositions and methods for treating infections of the ear” (Carter-Wallace, Inc., priority 1998, dated 2002).

Assays:
[1] = system: antibiotic resistant strains of H.pylori, staphylococci, streptococci, enterococci; assay: activity against antibiotic resistant bacteria; conditions: enterococci and other bacterial and nosocomial infections
[2] = pH of a saturated solution in deionized water; type: physicochemical
[3] = stability in aqueous solution; type: physicochemical; conditions: pre-packed and stored
[4] = solubility in aqueous solutions and organic solvents; type: physicochemical
[5] = cited from earlier work
[6] = stability in the solid state; type: physicochemical; conditions: stored at ambient conditions
[7] = system: mice; conditions: cited from earlier work
[8] = system: microbiota indigenous to the human ear; assay: activity against microbiota of the ear
[9] = apparent partition coefficient between octanol and water; type: physicochemical; conditions: water buffered at pH 7.2

pH of saturated solution [2]: 7.4
stability in aqueous solution [3]: stored over relatively long periods
solubility ([4]; CHCl3): insoluble
solubility ([4]; Dilute HCl): soluble
solubility ([4]; Dilute NaOH): soluble
solubility ([4]; EtOH): sparingly soluble
solubility ([4]; Water, 20° C.): 1% at 20 °C
stability in the solid state [6]: acceptable stability in the solid state
apparent partition coefficient between octanol and water [9]: approximately 0.13
SMILES: O=S1(=O)CCN(CN2CCS(=O)(=O)NC2)CN1 [Taurolidine, 4,4′-methylenebis (tetrahydro-1,2,4-thiadiazine)-1,1,1′,1′ tetraoxide]
effect on antibiotic resistant strains [1]: destroys antibiotic resistant strains
cumulative dose shown to be safe and well tolerated ([5]; cumulative doses): exceeding 300 g
systemic dose shown to be safe and well tolerated ([5]; systemic doses): exceeding 40 g/day
teratogenicity [7]: non-teratogenic
effect on growth of microbiota indigenous to the human ear [8]: eradicates or controls the growth
